The source of these data is article PMC11915372, “Identification of a Series Containing a Pentafluorophenyl Moiety That Targets Pks13 to Inhibit Growth of Mycobacterium tuberculosis” (ACS Infectious Diseases, 2025).

Where two headings read alike, the source gives them in different places.

A short description of one data set: physchem. Type of data set: physicochemical.
The format of data set [1] is in vitro ADME, mouse. Conditions: for Mouse Heps Cl: intrinsic clearance (Cli), mouse hepatocytes, Tables 1-4; for Hepatocyte Cli: supplement data table.
Another data set relates to HepG2 cells. The data set is described as follows: HepG2 cytotoxicity.
The subject of another data set is M. tuberculosis (H37Rv). The data set is described as follows: microbe, parasite or virus in culture. Type of data set: cell-based, Mycobacterium tuberculosis.
The format of data set [2] is in vitro ADME, mouse. Conditions: for Mouse micro Cl: intrinsic clearance (Cli), CD1 mouse liver microsomes, Tables 1-4; for Microsomal Cli: supplement data table.
Data set [3] is classed as in vitro ADME, human. The protocol: Non-Chemistry supplementary methods
Test compound (10 µM) was incubated with 0.5 mg/mL Human Liver Microsomes (Mixed Gender, Life Technologies) in 50 mM potassium phosphate buffer, pH7.4 in the presence of either NADPH (8mg/mL), glutathione or NADPH plus glutathione. Reactions are started by addition of 5 µL of 1 mM test compound (final concentration 10 µM, 1% solvent). Immediately, an aliquot (100 µL) of the incubation mixture was removed and mixed with acetonitrile (200 µL) to stop the reaction. A further 100 uL aliquot is removed at 90 minutes. After addition of 100 µL of water, the samples were centrifuged to sediment precipitated protein and the plates then sealed prior to analysis using a Xevo QTof Quadrupole Time-of-Flight Mass Spectrometer (Waters corporation, USA). Detection of metabolites is performed by analysis with MetabolynxXS and by manual data searching. Elemental composition of the parent ion and MS/MS analysis is used to determine the nature of the GSH adduct.
Incubations with Clozapine were performed to provide a positive control.
Met ID in human liver microsomes […]
Analysis was performed on a Waters Acquity H-Class UHPLC system equipped with a photodiode array detector and Waters Xevo Q-ToF high resolution mass spectrometer. […] After the UV detector the mobile phase flow was analysed using the QToF mass spectrometer. […]

The test system of data set [4] is MmpL3, DprE1, InhA, FadD32, Kas A hypomorph strains. The format is cell-based, Mycobacterium tuberculosis.
The subject of a further data set is Pks13 hypomorph strain. Type of data set: cell-based, Mycobacterium tuberculosis.
Data set [5] deals with iniBAC promoter (PiniB-LUX strain). The format is cell-based, Mycobacterium tuberculosis.
For data set [6] the following is noted: pH 7.4.
Where [7] appears, read: kinetic solubility in water, read-out: Kin. Sol.

Excerpt for HepG2 cells: Assays to establish HepG2 cytotoxicity, in vitro microsomal/hepatocyte metabolic stability, aqueous kinetic solubility, and in vivo pharmacokinetic profiles were all performed as previously described.[15],[35]−[37]

Consider `CN(C)c1ncnc2sc(-c3c(F)c(F)c(F)c(F)c3F)nc12.Cl` [Compound 1, CN(C)c1ncnc2sc(nc12)-c1c(c(c(c(c1F)F)F)F)F], for which the solubility kinetic in the data set “physchem” (setting [7]) amounted to 1.9 µM; in the data set “physchem” (pH 7.4, aqueous buffer, kinetic from dmso stock, pH7.4, read-out: Kinetic Solubility pH7.4), 1.9 µM. The “Mouse Heps Cl” value in data set [1] was more than 50 mLmin/g. Besides, the “Hepatocyte Cli” value in data set [1] is on record as more than 50 mL/min/g. Further, the IC50 with HepG2 cells (Homo sapiens, HepG2, read-out: HepG2 inhibitory concentration (IC50)) was more than 100 µM. Further, the MIC in the data set with M. tuberculosis (H37Rv) (Mycobacterium tuberculosis, H37RV, read-out: H37Rv MIC A) turned out to be 0.12 µM; with M. tuberculosis (H37Rv) (Mycobacterium tuberculosis, H37RV, read-out: H37Rv MIC B) it was 0.61 µM; in the data set with M. tuberculosis (H37Rv) (Mycobacterium tuberculosis, H37RV, read-out: Wk2_7H9/DPPC/ casitone/ Tyloxapol MIC), 0.124 µM; in the data set with M. tuberculosis (H37Rv) (Mycobacterium tuberculosis, H37RV, read-out: Wk2_ 7H9/DPPC/ cholesterol/BSA/ Tyloxapol MIC), 0.6 µM; with M. tuberculosis (H37Rv) (Mycobacterium tuberculosis, H37RV, read-out: Wk2_7H9/glucose/ BSA/Tyloxapol MIC) it was 0.5 µM; with M. tuberculosis (H37Rv) (Mycobacterium tuberculosis, H37RV, read-out: Wk2_7H9/glucose/ casitone/ Tyloxapol MIC), 0.1 µM. In data set [2], the “Mouse micro Cl” value is given as more than 50 mLmin/g. Moreover, the “Microsomal Cli” value in data set [2] is on record as more than 50 mL/min/g. The “formation of the GSH adduct” value in [3] was “clear evidence of a significant peak corresponding to the formation of the GSH adduct”. Also, the “change in potency on partial depletion of InhA, FadD32 or Kas A” value in data set [4] is “did not increase in potency”. The “inhibition of MmpL3 or DprE1 suggested by hypomorph strains” value in data set [4] is given as “not inhibiting MmpL3 or DprE1”. Besides, the “shift in IC50 between the ± atc conditions” value with Pks13 hypomorph strain is listed as approximately 10 fold. Further, in data set [5], the PiniB-LUX luminescent signal result is “strong luminescent signal”.
“COC(=O)c1nn(c(c1NC(=O)c1c(c(c(c(c1F)F)F)F)F)C)C [Compound 20]”: the solubility kinetic in the data set “physchem” (setting [7]) worked out at 229 µM; in the data set “physchem” (pH 7.4, read-out: Kinetic Solubility pH7.4) it was 229 µM. Moreover, in [1], the “Mouse Heps Cl” value was 15.2 mLmin/g. Besides, in data set [1], the “Hepatocyte Cli” value is recorded as 15 mL/min/g. Besides, the IC50 in the data set with HepG2 cells (read-out: HepG2 inhibitory concentration (IC50), growth of HepG2 cells) was more than 100 µM. The MIC with M. tuberculosis (H37Rv) (read-out: H37Rv MIC A), with M. tuberculosis (H37Rv) (read-out: H37Rv MIC B), in the data set with M. tuberculosis (H37Rv) (read-out: Wk2_7H9/DPPC/ casitone/ Tyloxapol MIC), in the data set on M. tuberculosis (H37Rv) (read-out: Wk2_ 7H9/DPPC/ cholesterol/BSA/ Tyloxapol MIC), in the data set with M. tuberculosis (H37Rv) (read-out: Wk2_7H9/glucose/ BSA/Tyloxapol MIC) and in the data set with M. tuberculosis (H37Rv) (read-out: Wk2_7H9/glucose/ casitone/ Tyloxapol MIC) was more than 50 µM each time. Also, in [2], the “Mouse micro Cl” value was 1.4 mLmin/g. Moreover, the “Microsomal Cli” value in data set [2] is given as 1.4 mL/min/g. Also, in data set [6], the “CHI LogD” value stood at 2.0.
